According to US9695155B2, “Herbicidal substituted pyrimidinyloxy benzene compounds” (E. I. DU PONT DE NEMOURS AND COMPANY, priority 2013, dated 2017):

What was measured:
[1] = system: dayflower; test: Test E preemergence; assay type: in vivo, Commelina virginica; conditions: for Dayflower, VA plant response rating: scale 0 to 100 (0 no effect, 100 complete control)
How it was run: (§1)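 Response was scored visually on a 0-100 scale (100 = complete control) versus controls after 14 to 21 days in the greenhouse. Test chemicals, formulated with surfactant in a non-phytotoxic solvent mixture, had been applied preemergence to seeds in silt loam soil or postemergence to 1- to 4-leaf plants in potting medium.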

[2] = system: goosegrass; test: Test E preemergence; assay type: in vivo, Eleusine indica; conditions: for Goosegrass plant response rating: scale 0 to 100 (0 no effect, 100 complete control)
How it was run: as §1

[3] = system: barnyardgrass; test: Test E preemergence; assay type: in vivo, Echinochloa crus-galli; conditions: preemergence; for Barnyardgrass plant response rating: scale 0 to 100 (0 no effect, 100 complete control)
Excerpt: (§2) Seeds of plant species selected from corn (Zea mays), soybean (Glycine max), velvetleaf (Abutilon theophrasti), lambsquarters (Chenopodium album), wild poinsettia (Euphorbia heterophylla), palmer pigweed (Amaranthus palmeri), waterhemp (common waterhemp, Amaranthus rudis), surinam grass (Brachiaria decumbens), large (Lg) crabgrass (Digitaria sanguinalis), Brazilian crabgrass (Digitaria horizontalis), fall panicum (Panicum dichotomiflorum), giant foxtail (Setaria faberii), green foxtail (Setaria viridis), goosegrass (Eleusine indica), johnsongrass (Sorghum halepense), ragweed (common ragweed, Ambrosia elatior), barnyardgrass (Echinochloa crus-galli), sandbur (southern sandbur, Cenchrus echinatus), arrowleaf sida (Sida rhombifolia), Italian ryegrass (Lolium multiflorum), dayflower (Virginia (VA) dayflower, Commelina virginica), field bindweed (Convolvulus arvensis), morningglory (Ipomoea coccinea), nightshade (eastern black nightshade, Solanum ptycanthum), kochia (Kochia scoparia), yellow nutsedge (Cyperus esculentus), cocklebur (common cocklebur, Xanthium strumarium), smartweed (ladysthumb smartweed, and hairy beggarticks (Bidens pilosa), were planted into a silt loam soil and treated preemergence with test chemicals formulated in a non-phytotoxic solvent mixture which included a surfactant.
(§3) At the same time, plants from these crop and weed species and also horseweed (Canada horseweed, Conyza canadensis), waterhemp_RES1, (ALS & Triazine resistant common waterhemp, Amaranthus rudis), and waterhemp_RES2, (ALS & HPPD resistant common waterhemp, Amaranthus rudis) were planted in pots containing Redi-Earth® planting medium (Scotts Company, 14111 Scottslawn Road, Marysville, Ohio 43041) comprising spaghnum peat moss, vermiculite, wetting agent and starter nutrients were treated with postemergence applications of test chemicals formulated in the same manner. Plants ranged in height from 2 to 18 cm for postemergence treatments (1- to 4-leaf stage). Treated plants and controls were maintained in a greenhouse for 14 to 21 days, after which time all species were compared to controls and visually evaluated. Plant response ratings, summarized in Table E, are based on a scale of 0 to 100 where 0 is no effect and 100 is complete control. A dash (-) response means no test result.

[4] = system: arrowleaf sida; test: Test E preemergence; assay type: in vivo, Sida rhombifolia; conditions: preemergence; for Arrowleaf Sida plant response rating: scale 0 to 100 (0 no effect, 100 complete control)
Excerpt: as §2, §3

[5] = system: large (Lg) crabgrass; test: Test E preemergence; assay type: in vivo, Digitaria sanguinalis; conditions: for Crabgrass, Large plant response rating: scale 0 to 100 (0 no effect, 100 complete control)
Excerpt: as §2, §3

[6] = system: field bindweed; test: Test E preemergence; assay type: in vivo, Convolvulus arvensis; conditions: for Field Bindweed plant response rating: scale 0 to 100 (0 no effect, 100 complete control)
Excerpt: as §2, §3

[7] = system: morningglory; test: Test E preemergence; assay type: in vivo, Ipomoea coccinea; conditions: for Morningglory plant response rating: scale 0 to 100 (0 no effect, 100 complete control)
Excerpt: as §2, §3

[8] = system: fall panicum; test: Test E preemergence; assay type: in vivo, Panicum dichotomiflorum; conditions: for Panicum, Fall plant response rating: scale 0 to 100 (0 no effect, 100 complete control)
Excerpt: as §2, §3

[9] = system: palmer pigweed; test: Test E preemergence; assay type: in vivo, Amaranthus palmeri; conditions: for Pigweed, Palmer plant response rating: scale 0 to 100 (0 no effect, 100 complete control)
How it was run: as §1

[10] = system: sedge, umbrella; test: Test C flooded paddy test; assay type: in vivo, Cyperus difformis; conditions: Flood, scale 0 to 100 (0 no effect, 100 complete control), 13 to 15 days
How it was run: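 Compound was added to standing water 3 cm above soil, flood maintained, and plants held in a greenhouse before visual scoring against controls at 13 to 15 days.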

[11] = system: ragweed; test: Test E preemergence; assay type: in vivo, Ambrosia elatior; conditions: for Ragweed plant response rating: scale 0 to 100 (0 no effect, 100 complete control)
Excerpt: as §2, §3

[12] = 125 g ai/ha, scale 0 to 100, 0 no effect, 100 complete control
[13] = 8 g ai/ha, scale 0 to 100, 0 is no effect, 100 is complete control

Fc1cnc(Oc2cccc(C(F)F)c2-n2cc(C(F)(F)F)cn2)nc1 [Compound 164]
Dayflower, VA plant response rating ([1]; 16 g ai/ha): 0
Dayflower, VA plant response rating ([1]; 31 g ai/ha): 20
Dayflower, VA plant response rating ([1]; 62 g ai/ha): 65
Plant response rating, Dayflower, VA [1, 12]: 90
Goosegrass plant response rating ([2]; 31 g ai/ha): 5
Goosegrass plant response rating ([2]; 62 g ai/ha): 20
Plant response rating, Goosegrass [2, 12]: 75
Barnyardgrass plant response rating ([3]; 16 g ai/ha): 0
Barnyardgrass plant response rating ([3]; 31 g ai/ha): 0
Barnyardgrass plant response rating ([3]; 62 g ai/ha): 0
Plant response rating, Barnyardgrass [3, 12]: 65
Arrowleaf Sida plant response rating ([4]; 16 g ai/ha): 40
Arrowleaf Sida plant response rating ([4]; 31 g ai/ha): 100
Arrowleaf Sida plant response rating ([4]; 62 g ai/ha): 100
Plant response rating, Arrowleaf Sida [4, 12]: 100
Crabgrass, Large plant response rating ([5]; 16 g ai/ha): 35
Crabgrass, Large plant response rating ([5]; 31 g ai/ha): 35
Crabgrass, Large plant response rating ([5]; 62 g ai/ha): 75
Plant response rating, Crabgrass, Large [5, 12]: 100
Field Bindweed plant response rating ([6]; 16 g ai/ha): 0
Field Bindweed plant response rating ([6]; 31 g ai/ha): 0
Field Bindweed plant response rating ([6]; 62 g ai/ha): 30
Plant response rating, Field Bindweed [6, 12]: 50
Morningglory plant response rating ([7]; 31 g ai/ha): 65
Morningglory plant response rating ([7]; 62 g ai/ha): 35
Plant response rating, Morningglory [7, 12]: 98
Panicum, Fall plant response rating ([8]; 31 g ai/ha): 0
Panicum, Fall plant response rating ([8]; 62 g ai/ha): 30
Plant response rating, Panicum, Fall [8, 12]: 98
Pigweed, Palmer plant response rating ([9]; 31 g ai/ha): 0
Pigweed, Palmer plant response rating ([9]; 62 g ai/ha): 75
Plant response rating, Pigweed, Palmer [9, 12]: 80
Plant response rating, Sedge, Umbrella ([10]; 31 g ai/ha): 0
Plant response rating, Sedge, Umbrella ([10]; 62 g ai/ha): 20
Plant response rating, Sedge, Umbrella ([10]; 125 g ai/ha): 75
Plant response rating, Sedge, Umbrella ([10]; 250 g ai/ha): 95
Ragweed plant response rating ([11]; 31 g ai/ha): 0
Ragweed plant response rating ([11]; 62 g ai/ha): 25
Plant response rating, Ragweed [11, 12]: 60

NC(=S)c1cccc(Oc2ncc(Cl)cn2)c1-n1cc(Cl)cn1 [Compound 292]
Plant response rating, Dayflower, VA [1, 13]: 20
Dayflower, VA plant response rating ([1]; 16 g ai/ha): 20
Dayflower, VA plant response rating ([1]; 31 g ai/ha): 20
Dayflower, VA plant response rating ([1]; 62 g ai/ha): 35
Plant response rating, Dayflower, VA [1, 12]: 85
Plant response rating, Goosegrass [2, 13]: 0
Goosegrass plant response rating ([2]; 31 g ai/ha): 20
Goosegrass plant response rating ([2]; 62 g ai/ha): 50
Plant response rating, Goosegrass [2, 12]: 70
Plant response rating, Barnyardgrass [3, 13]: 0
Barnyardgrass plant response rating ([3]; 16 g ai/ha): 0
Barnyardgrass plant response rating ([3]; 31 g ai/ha): 0
Barnyardgrass plant response rating ([3]; 62 g ai/ha): 0
Plant response rating, Barnyardgrass [3, 12]: 40
Plant response rating, Arrowleaf Sida [4, 13]: 0
Arrowleaf Sida plant response rating ([4]; 16 g ai/ha): 0
Arrowleaf Sida plant response rating ([4]; 31 g ai/ha): 5
Arrowleaf Sida plant response rating ([4]; 62 g ai/ha): 5
Plant response rating, Arrowleaf Sida [4, 12]: 80
Plant response rating, Crabgrass, Large [5, 13]: 0
Crabgrass, Large plant response rating ([5]; 16 g ai/ha): 0
Crabgrass, Large plant response rating ([5]; 31 g ai/ha): 20
Crabgrass, Large plant response rating ([5]; 62 g ai/ha): 90
Plant response rating, Crabgrass, Large [5, 12]: 100
Plant response rating, Field Bindweed [6, 13]: 0
Field Bindweed plant response rating ([6]; 16 g ai/ha): 0
Field Bindweed plant response rating ([6]; 31 g ai/ha): 5
Field Bindweed plant response rating ([6]; 62 g ai/ha): 30
Plant response rating, Field Bindweed [6, 12]: 65
Plant response rating, Morningglory [7, 13]: 0
Morningglory plant response rating ([7]; 31 g ai/ha): 0
Morningglory plant response rating ([7]; 62 g ai/ha): 15
Plant response rating, Morningglory [7, 12]: 50
Plant response rating, Panicum, Fall [8, 13]: 0
Panicum, Fall plant response rating ([8]; 31 g ai/ha): 0
Panicum, Fall plant response rating ([8]; 62 g ai/ha): 90
Plant response rating, Panicum, Fall [8, 12]: 100
Plant response rating, Pigweed, Palmer [9, 13]: 0
Pigweed, Palmer plant response rating ([9]; 31 g ai/ha): 35
Pigweed, Palmer plant response rating ([9]; 62 g ai/ha): 100
Plant response rating, Pigweed, Palmer [9, 12]: 100
Plant response rating, Ragweed [11, 13]: 0
Ragweed plant response rating ([11]; 31 g ai/ha): 0
Ragweed plant response rating ([11]; 62 g ai/ha): 0
Plant response rating, Ragweed [11, 12]: 35
